Experiment: Dentin loss under extreme erosion conditions, composition versus its three ingredients separately (Example 8)
Parameters: species or system cow
Settings: 10 cycles: 5 min pre-treatment, 1% citric acid pH 2.3 for 3 min; vs distilled water
Procedure: The protective capacity of a mouthwash formulated with olive oil, trimethylglycine and xylitol in dentin subjected to extreme erosion conditions was analysed, compared to that of aqueous solutions of the three ingredients separately in the same concentrations used in the mouthwash tested. For the evaluation of effects a control was included consisting of distilled water.
Incisive teeth extracted from a cow's jaw were used, which were immersed in a 0.5% thymol solution at room temperature. The teeth were sectioned at the cementum-enamel junction by means of a water-cooled diamond scalpel (Exakt, Norderstedt, Germany), and the crowns and roots were embedded in acrylic resin cylinders (Paladur, Heraeus Kulzer, Wehrheim, Germany). Radicular cementum was completely eliminated. […]
Dentin loss was quantified performing profile or profilometric measurements (Mahr Perthometer, Göttingen, Germany). […] After the experiment the adhesive tapes were removed and the samples were analysed again. The average depth of the eroded surfaces was thus calculated with respect to basic surface profiles by means of specific software (Mahr Perthometer Concept 7.0, Mahr, Göttingen, Germany).
Dentin loss was calculated (mean±standard deviation) for each group and statistically analysed by Student's t test followed by Bonferroni's t test for multiple comparisons (Statistica 6.0, Statsoft, Tulsa, USA).

Row | SMILES | protective effect on dentin against erosion
1 | OC[C@@H](O)[C@H](O)[C@@H](O)CO [1% xylitol solution, xylitol] | did not demonstrate any protective effect
2 | C[N+](C)(C)CC(=O)[O-] [2% trimethylglycine solution, trimethylglycine] | did not demonstrate any protective effect

— patent US20080241080A1, “COMPOSITION FOR TREATING XEROSTOMIA OR DRY MOUTH” (BIOCOSMETICS, S.L., priority 2007, published 2008)
